{"source": "patent US11814688B2", "about": "“Markers for determining tumor hypoxia” (VIB VZW, priority 2015, dated 2023)", "key": {"[1]": {"system": "MCF7 cells", "experiment": "LC/MS analysis of global 5hmC levels in MCF7 cells", "type": "cell-based, human", "details": "24 hours"}, "[2]": {"system": "HIFs", "experiment": "HIF stabilization and hypoxia response program (Western blot, RT-qPCR) in MCF7 cells", "type": "cell-based, human", "details": "IOX2 50 μM", "experimental": "Cell culture: Cells were cultured as described in the Supplemental Experimental Procedures. […] Where indicated, IOX2 (50 μM) or dimethyl α-ketoglutarate (2 mM) were added to fresh culture medium, using an equal volume of carrier (DMSO) as control for IOX2. Cells were plated at a density tailored to reach 80-95% confluence at the end of the treatment. Fresh medium was added to the cells just before the hypoxia exposure. For glutamine-free culture experiments, dialysed FBS was added to glutamine-free DMEM, and supplemented with glutamine (4 mM) for control. Extraction of DNA, RNA, proteins or metabolites was done 24 hours after the start of treatment, unless indicated otherwise. […]\nRT-qPCR: For RNA extractions, cell culture medium was removed, TRIzol (Life Technologies) added and processed according to guidelines. […] Thermal cycling and fluorescence detection were done on a LightCycler 480 Real-Time PCR System (Roche), and differential expression calculated using the ΔΔCt method (Schmittgen and Livak, 2008). […]\nTET mRNA concentrations and hypoxia marker gene induction: mRNA concentration analysis and statistics: Ct values were determined for each sample and gene of interest in technical duplicates, and normalized according to the corresponding amplification efficiency. […] Concentrations were expressed as averages of at least 5 independent biological replicates. […]"}, "[3]": {"system": "PHDs", "details": "cited from earlier work"}, "[4]": {"biological_target": "recombinant purified Tet1 enzyme (Mus musculus, UniProt Q3URK3)", "sequence (Q3URK3 1367-2039 limits assumed)": "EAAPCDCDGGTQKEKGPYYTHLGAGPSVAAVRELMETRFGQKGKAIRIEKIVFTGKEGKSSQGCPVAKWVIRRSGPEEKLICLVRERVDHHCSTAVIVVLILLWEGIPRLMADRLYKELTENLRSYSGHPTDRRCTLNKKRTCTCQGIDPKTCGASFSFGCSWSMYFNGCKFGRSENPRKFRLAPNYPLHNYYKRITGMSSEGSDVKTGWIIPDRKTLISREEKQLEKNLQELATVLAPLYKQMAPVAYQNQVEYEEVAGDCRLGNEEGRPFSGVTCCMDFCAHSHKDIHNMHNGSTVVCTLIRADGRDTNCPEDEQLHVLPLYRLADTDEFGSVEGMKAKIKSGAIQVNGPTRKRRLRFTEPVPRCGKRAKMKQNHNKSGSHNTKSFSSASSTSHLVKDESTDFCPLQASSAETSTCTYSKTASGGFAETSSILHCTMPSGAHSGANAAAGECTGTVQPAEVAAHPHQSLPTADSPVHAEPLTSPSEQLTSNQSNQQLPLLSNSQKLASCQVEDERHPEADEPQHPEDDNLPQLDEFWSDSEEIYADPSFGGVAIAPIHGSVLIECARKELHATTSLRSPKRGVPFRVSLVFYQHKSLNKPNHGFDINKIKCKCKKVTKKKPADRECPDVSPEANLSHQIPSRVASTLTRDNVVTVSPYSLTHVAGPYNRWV", "experiment": "DNA hydroxymethylation assay using purified TET enzyme at different O2 concentrations", "details": "conversion of 5mC to 5hmC on genomic DNA, 3 min reaction"}, "[5]": {"system": "breast tumors of MMTV-PyMT mice", "experiment": "sFlk1 overexpression by hydrodynamic plasmid injection in MMTV-PyMT mice", "type": "in vivo, mouse", "experimental": "Murine cancer models: Animal experiments received local ethical approval (P098/2014). Animals were intercrossed and maintained as described in Supplemental Experimental Procedures. Mammary tumors were harvested at 16 weeks from Tg(MMTV-PyMT) and Tg(MMTV-PyMT); Phd2−/+ mice. For Flk1-overexpression studies, tumors allowed to develop for 11 weeks. Subsequently, 2.5 μg of plasmid (sFlk1-overexpressing or empty p156RRL2 vector) per gram of mouse body weight was introduced in the blood stream using hydrodynamic injections (Liu et al., 1999). sFlk1 overexpression was monitored at 4 days after injection and at sacrifice ([…]), by eye bleeds followed by an enzyme-linked immunosorbent assay for sFlk1 (R&D Systems, Abingdon, UK) in blood plasma. At 12 weeks of age, mice were sacrificed and mammary tumors harvested blinded for treatment. For the Phd2^+/− experiments, male Tg(MMTV-PyMT) FVB mice were intercrossed with female Phd2^−/+ mice, yielding litters of which half have either a Tg(MMTV-PyMT) genotype or a Tg(MMTV-PyMT); Phd2^−/+ genotype. For the Phd2^wt/fl experiments, male Tg(MMTV-PyMT) FVB mice were intercrossed with female Tie2-cre; Phd2^wt/fl mice as described (Kuchnio et al 2015), yielding litters of which half have either a Tie2-cre; Tg(MMTV-PyMT); Phd2^wt/wt genotype or a Tie2-cre; Tg(MMTV-PyMT); Phd2^−/+ genotype. At 16 weeks of age, female mice were sacrificed and mammary tumors harvested.\nTargeted deep BS-seq: As no murine capture kit was available for targeted BSseq, a specific ampliconBS was developed for a set of 15 tumor suppressor gene promoters and 5 oncogene promoters. More specifically, DNA was bisulfite-converted using the Imprint DNA modification kit and amplified using the MegaMix Gold 2× mastermix and validated primer pairs. Per sample, PCR products were mixed to equimolar concentrations, converted into sequencing libraries using the NEBNext DNA library prep master mix set and sequenced to a depth of ˜500×. Mapping and quantification were done as described for SeqCapEpi. The average and variance of methylation level M values in normal mammary glands were used as baseline, and amplicons displaying over 3 standard deviations more methylation (FDR-adjusted P<0.05) than this baseline were called as hypermethylated. At least 9 different tumors, each from different animals, were profiled per genotype or treatment, and differences in HM frequencies between sets of tumors were assessed using Mann-Whitney's U-test.\nImmunofluorescence staining: To mark hypoxic areas, mice were injected with pimonidazole (60 mg/kg, Hypoxyprobe, Massachusetts, USA) i.p. 1 hour before sacrifice. Tumors were harvested, fixed in formaldehyde and embedded in paraffin using standard procedures. Slides were deparafinated and rehydrated 2 xylene baths (5 minutes), followed by 5 times 3 minutes in EtOH baths at decreasing concentrations (100%, 96%, 70%, 50% and water) and a 3 minute Tris-buffered saline (TBS; 50 mM Tris, 150 mM NaCl, pH 7.6) bath. The following antibodies were used for immunofluorescence staining: primary antibodies were FITC-conjugated mouse anti-pimonidazole (HP2-100, Hydroxyprobe), rabbit anti-5hmC (39791, Active Motif), rat anti-polyoma middle T (AB15085, Abcam), rat anti-CD31 (557355, BD Biosciences), rat anti-CD45 (553076, BD Biosciences), rabbit anti-Ki67 (AB15580, Abcam) and mouse anti-pan cytokeratin (C2562, Sigma). […]"}}, "data": [{"molecule": "O=C(O)CNC(=O)c1c(O)c2ccccc2n(Cc2ccccc2)c1=O", "note": "[IOX2]", "values": [{"measurement": "changes in global 5hmC levels", "setting": "[1]; IOX2 50 μM, carrier DMSO as control", "value": "no changes"}, {"measurement": "HIF stabilization and activation of the hypoxia response program", "setting": "[2]", "value": "sufficient to stabilize HIFs and activate the hypoxia response program"}, {"measurement": "specificity for PHDs over other αKG-dependent dioxygenases", "setting": "[3]", "value": "high specificity"}]}, {"molecule": "O=O", "note": "[oxygen]", "values": [{"measurement": "Km of Tet1 for oxygen", "setting": "[4]", "value": "~0.3", "unit": "% O2"}]}, {"molecule": "COC(=O)CCC(=O)C(=O)OC", "note": "[αKG, dimethyl α-ketoglutarate]", "values": [{"measurement": "changes in global 5hmC levels", "setting": "[1]; dimethyl α-ketoglutarate 2 mM added to medium", "value": "Neither of these conditions however altered 5hmC levels"}]}, {"molecule": "sFlk1: soluble Flk1, VEGF inhibitor, overexpressed from a hydrodynamically injected plasmid (protein, UniProt P35918 20-762, looked up, extracellular domain) extracellular domain: ASVGLPGDFLHPPKLSTQKDILTILANTTLQITCRGQRDLDWLWPNAQRDSEERVLVTECGGGDSIFCKTLTIPRVVGNDTGAYKCSYRDVDIASTVYVYVRDYRSPFIASVSDQHGIVYITENKNKTVVIPCRGSISNLNVSLCARYPEKRFVPDGNRISWDSEIGFTLPSYMISYAGMVFCEAKINDETYQSIMYIVVVVGYRIYDVILSPPHEIELSAGEKLVLNCTARTELNVGLDFTWHSPPSKSHHKKIVNRDVKPFPGTVAKMFLSTLTIESVTKSDQGEYTCVASSGRMIKRNRTFVRVHTKPFIAFGSGMKSLVEATVGSQVRIPVKYLSYPAPDIKWYRNGRPIESNYTMIVGDELTIMEVTERDAGNYTVILTNPISMEKQSHMVSLVVNVPPQIGEKALISPMDSYQYGTMQTLTCTVYANPPLHHIQWYWQLEEACSYRPGQTSPYACKEWRHVEDFQGGNKIEVTKNQYALIEGKNKTVSTLVIQAANVSALYKCEAINKAGRGERVISFHVIRGPEITVQPAAQPTEQESVSLLCTADRNTFENLTWYKLGSQATSVHMGESLTPVCKNLDALWKLNGTMFSNSTNDILIVAFQNASLQDQGDYVCSAQDKKTKKRHCLVKQLIILERMAPMITGNLENQTTTIGETIEVTCPASGNPTPHITWFKDNETLVEDSGIVLRDGNRNLTIRRVRKEDGGLYTCQACNVLGCARAETLFIIEGAQEKTNLE", "values": [{"measurement": "tumor hypoxia (hypoxic area)", "setting": "[5]; after sFlk1 treatment, 20% in control", "value": 47, "unit": "%"}, {"measurement": "TSGs hypermethylated relative to control in at least one out of 24 hypoxic tumors", "setting": "[5]; deep BS-sequencing, panel of 15 TSG promoters", "value": "10 out of 15"}, {"measurement": "hypermethylation of oncogene promoters", "setting": "[5]; deep BS-sequencing, sFlk-treated tumors", "value": "failed to display the same increase"}, {"measurement": "increase in plasma sFlk1 concentrations", "setting": "[5]; during 3 weeks after hydrodynamic injection of sFlk1-expressing plasmid, versus empty plasmid", "value": "> 11", "unit": "fold"}, {"measurement": "reduction in vessel density", "setting": "[5]; tumor vasculature, sFlk1-treated mice", "value": "42±10", "unit": "%"}]}]}
